Converted amounts (≈) assume the structure as drawn. Where two headings read alike, the source gives them in different places.
Key:
ATF4 = assay: HEK-ATF4 High Content Imaging assay (prevention of Tunicamycin induced ISR; ATF4 signal ratio between nucleus and cytoplasm); type: cell-based; details: Homo sapiens; Wild-type HEK293 cells, Tunicamycin induced ISR, 6 h; read-out: IIEK-ATF4 Activity
Protocol: HEK-ATF4 High Content Imaging Assay
Example compounds were tested in the HEK-ATF4 High Content Imaging assay to assess their pharmacological potency to prevent Tunicamycin induced ISR. Wild-type HEK293 cells were plated in 384-well imaging assay plates at a density of 12,000 cells per well in growth medium (containing DMEM/F12, 10% FBS, 2 mM L-Glutamine, 100 U/mL Penicillin-100 μg/mL Streptomycin) and incubated at 37° C., 5% CO2. 24 h later, the medium was changed to 50 μL assay medium per well (DMEM/F12, 0.3% FBS, 2 mM L-Glutamine, 100 U/mL Penicillin-100 μg/mL Streptomycin). Example compounds were serially diluted in DMSO, spotted into intermediate plates and prediluted with assay medium containing 3.3 μM Tunicamycin to give an 11-fold excess of final assay concentration. In addition to the example compound testing area, the plates also contained multiples of control wells for assay normalization purposes, wells containing Tunicamycin but no example compounds (High control), as well as wells containing neither example compound nor Tunicamycin (Low control). The assay was started by transferring 5 μL from the intermediate plate into the assay plates, followed by incubation for 6 h at 37° C., 5% CO2. Subsequently, cells were fixed (4% PFA in PBS, 20 min at r.t.) and submitted to indirect ATF4 immunofluorescence staining (primary antibody rabbit anti ATF4, clone D4B8, Cell Signaling Technologies; secondary antibody Alexa Fluor 488 goat anti-rabbit IgG (H+L), Thermofisher Scientific). Nuclei were stained using Hoechst dye (Thermofisher Scientific), and plates were imaged on an Opera Phenix High Content imaging platform equipped with 405 nm and 488 nm excitation. Finally, images were analyzed using script based algorithms. The main readout HEK-ATF4 monitored the ATF4 signal ratio between nucleus and cytoplasm. Tunicamycin induced an increase in the overall ATF4 ratio signal, which was prevented by ISR modulating example compounds. In addition, HEK-CellCount readout was derived from counting the number of stained nuclei corresponding to healthy cells. This readout served as an internal toxicity control.

[1] = Thermodynamic (Equilibrium) solubility in selected buffer; type: physicochemical; details: Table 25; for solubility: aqueous buffer, thermodynamic from solid
Protocol: Protocol—Thermodynamic (Equilibrium) Solubility in Selected Buffer
Example compounds were tested in the Thermodynamic (Equilibrium) solubility in selected buffer assay. The test compound, in powder form, was weighted into a 4 mL glass vial and a calculated volume of selected medium was added to reach the target concentration of the solubility test (1 mg/mL). The solution was then stirred overnight at r.t. protected from the light. The solution was filtered through a 0.45 μm PTFE membrane at ambient temperature. An aliquot of the resulting filtrate was quantified using UPLC-UV method described below against a reference solution of the test compound, 0.8 mg/mL in DMSO. Media compositions: Phosphate buffer 50 mM (pH=2.0) […] of NaH2PO4, H2O in 200 mL of ultrapurified water adjusted at pH 2 with phosphoric acid 85%; Acetate buffer 50 mM (pH=5.5) 820 mg of anhydrous sodium acetate in 200 mL of ultrapurified water adjusted at pH 5.5 with acetic acid 99.8%; Phosphate buffer 50 mM (pH=7.4) 40.5 mL of Na2HPO4 0.1 M solution+9.5 mL of NaH2PO4 0.1 M solution. Analytical conditions: UPLC-UV-MS analyses were performed with a Waters Acquity UPLC HClass-PDA-QDa system using a reverse phase Acquity BEH C18 column (2.1 mm×50 mm, 1.7 μm; temperature: 40° C.) and a gradient of 10-95% B (A=0.1% formic acid in H2O; B=0.05% formic acid in ACN) over 1.8 min then 100% B for 0.8 min, with an injection volume of 0.4 μL at flow rate of 0.65 mL/min. UV chromatograms were recorded at 220 nm, 254 nm and 290 nm using a photo diode array detector. Mass spectra were recorded in the 150 to 900 M/Z range at a sampling rate of 10 scans per sec using a QDa detector. Data were integrated using Empower®3 software. Data Analysis: Equilibrium solubility of the test compound in the selected medium was calculated through the ratio of the surface area of the UV chromatographic peak of the compound in the filtrate to the surface of the UV chromatographic peak of the compound in the reference solution.

[2] = acetate buffer 50 mM, pH 5.5, read-out: Solubility (μg/mL) pH 5.5
[3] = phosphate buffer 50 mM, pH 7.4, read-out: Solubility (μg/mL) pH 7.4

SMILES	IC50 (ATF4) [nM]	other results
C[C@H](Oc1ccc(Cl)cc1)C(=O)N[C@H]1CC[C@H](c2nnc(-c3ccc(C(F)(F)F)cc3)o2)NC1 (single isomer, unassigned) [Example 107]	2000 to 15000	
O=C(CO[C@H]1C[C@@H](OC(F)(F)F)C1)N[C@@H]1CC[C@@H](c2nnc(-c3ccc(Cl)cc3)o2)NC1 [Example 5]		solubility [1, 2]: 215 µg/mL (≈ 453 µM); Solubility (μg/mL) pH 2.0 ([1]; pH 2.0): quant.^#; solubility [1, 3]: 278 µg/mL (≈ 585 µM)
O=C(COc1ccc(Cl)cc1F)N[C@H]1CC[C@H](c2nnc(OCCC(F)(F)F)o2)NC1 [Example 17, 2-(4-chloro-2-fluorophenoxy)-N-[(3S,6R)-6-[5-(3,3,3-trifluoropropoxy)-1,3,4-oxadiazol-2-yl]piperidin-3-yl]acetamide]	2000 to 15000	
O=C(COc1cc(Cl)c(Cl)c(Cl)c1)N[C@H]1CC[C@H](c2nnc(OCCC(F)(F)F)o2)NC1 [Example 26, 2-(3,4,5-trichlorophenoxy)-N-[(3S,6R)-6-[5-(3,3,3-trifluoropropoxy)-1,3,4-oxadiazol-2-yl]piperidin-3-yl]acetamide]	2000 to 15000	
O=C(COc1cccc(C(F)(F)F)c1)N[C@H]1CC[C@H](c2nnc(OCCC(F)(F)F)o2)NC1 [Example 28, 2-[3-(trifluoromethyl)phenoxy]-N-[(3S,6R)-6-[5-(3,3,3-trifluoropropoxy)-1,3,4-oxadiazol-2-yl]piperidin-3-yl]acetamide]	2000 to 15000	
O=C(COc1ccc(Cl)c(F)c1)N[C@@H]1CC[C@H](c2nnc(-c3ccc(Cl)cc3)o2)NC1 [Example 36, 2-(4-chloro-3-fluorophenoxy)-N-[(3R,6R)-6-[5-(4-chlorophenyl)-1,3,4-oxadiazol-2-yl]piperidin-3-yl]acetamide]	500 to 2000	
CC(C)(C)OC(=O)N1C[C@@H](NC(=O)COc2ccc(Cl)c(F)c2)CC[C@@H]1c1nnc(-c2ccc(Cl)cc2)o1 [Example 39, tert-butyl (2R,5S)-5-[2-(4-chloro-3-fluorophenoxy)acetamido]-2-[5-(4-chlorophenyl)-1,3,4-oxadiazol-2-yl]piperidine-1-carboxylate]	2000 to 15000	
COCCN1C[C@H](NC(=O)COc2ccc(Cl)c(F)c2)CC[C@H]1c1nnc(-c2ccc(Cl)cc2)o1 [Example 48, 2-(4-chloro-3-fluoro-phenoxy)-N-[(3R,6S)-6-[5-(4-chlorophenyl)-1,3,4-oxadiazol-2-yl]-1-(2-methoxyethyl)piperidin-3-yl]acetamide]	500 to 2000	
CC(COc1nnc([C@H]2CC[C@H](NC(=O)COc3ccc(Cl)c(F)c3)CN2)o1)C(F)(F)F (stereo partly drawn) [Example 63, 2-(4-chloro-3-fluorophenoxy)-N-[(3S,6R)-6-[5-(3,3,3-trifluoro-2-methylpropoxy)-1,3,4-oxadiazol-2-yl]piperidin-3-yl]acetamide]	500 to 2000	
O=C(COc1ccc(Cl)c(F)c1)N[C@H]1CC[C@H](c2nnc(OCC(F)(F)C(F)(F)F)o2)NC1 [Example 73, 2-(4-chloro-3-fluorophenoxy)-N-[(3S,6R)-6-[5-(2,2,3,3,3-pentafluoropropoxy)-1,3,4-oxadiazol-2-yl]piperidin-3-yl]acetamide]	500 to 2000	
O=C(COc1ccc(Cl)c(F)c1)N[C@H]1CC[C@H](c2nnc(OCCCC(F)(F)F)o2)NC1 [Example 74, 2-(4-chloro-3-fluorophenoxy)-N-[(3S,6R)-6-[5-(4,4,4-trifluorobutoxy)-1,3,4-oxadiazol-2-yl]piperidin-3-yl]acetamide]	1 to 500	

Continued, in another order:

IC50 (ATF4) [nM]	SMILES	other results
1 to 500	O=C(COc1ccc(Cl)c(F)c1)N[C@H]1CC[C@H](c2nnc(-c3ccc(Cl)cc3)o2)NC1=O (racemic) [Example 37, Rac-2-(4-chloro-3-fluorophenoxy)-N-[6-[5-(4-chlorophenyl)-1,3,4-oxadiazol-2-yl]-2-oxopiperidin-3-yl]acetamide]	
500 to 2000	O=C(COc1ccc(F)c(Cl)c1)N[C@H]1CC[C@H](c2nnc(OCCC(F)(F)F)o2)NC1 [Example 18, 2-(3-chloro-4-fluorophenoxy)-N-[(3S,6R)-6-[5-(3,3,3-trifluoropropoxy)-1,3,4-oxadiazol-2-yl]piperidin-3-yl]acetamide]	
500 to 2000	O=C(COc1ccc(C(F)(F)F)cc1)N[C@H]1CC[C@H](c2nnc(OCCC(F)(F)F)o2)NC1 [Example 19, 2-[4-(trifluoromethyl)phenoxy]-N-[(3S,6R)-6-[5-(3,3,3-trifluoropropoxy)-1,3,4-oxadiazol-2-yl]piperidin-3-yl]acetamide]	
1 to 500	O=C(COc1ccc(Cl)c(Cl)c1)N[C@H]1CC[C@H](c2nnc(OCCC(F)(F)F)o2)NC1 [Example 20, 2-(3,4-dichlorophenoxy)-N-[(3S,6R)-6-[5-(3,3,3-trifluoropropoxy)-1,3,4-oxadiazol-2-yl]piperidin-3-yl]acetamide]	
500 to 2000	O=C(COc1ccc(Cl)c(F)c1F)N[C@H]1CC[C@H](c2nnc(OCCC(F)(F)F)o2)NC1 [Example 21, 2-(4-chloro-2,3-difluorophenoxy)-N-[(3S,6R)-6-[5-(3,3,3-trifluoropropoxy)-1,3,4-oxadiazol-2-yl]piperidin-3-yl]acetamide]	
500 to 2000	O=C(COc1cc(F)c(Cl)c(F)c1)N[C@H]1CC[C@H](c2nnc(OCCC(F)(F)F)o2)NC1 [Example 22, 2-(4-chloro-3,5-difluorophenoxy)-N-[(3S,6R)-6-[5-(3,3,3-trifluoropropoxy)-1,3,4-oxadiazol-2-yl]piperidin-3-yl]acetamide]	
1 to 500	O=C(COc1ccc(C(F)(F)F)c(F)c1)N[C@H]1CC[C@H](c2nnc(OCCC(F)(F)F)o2)NC1 [Example 23, 2-[3-fluoro-4-(trifluoromethyl)phenoxy]-N-[(3S,6R)-6-[5-(3,3,3-trifluoropropoxy)-1,3,4-oxadiazol-2-yl]piperidin-3-yl]acetamide]	
500 to 2000	O=C(N[C@H]1CC[C@H](c2nnc(OCCC(F)(F)F)o2)NC1)C(F)(F)Oc1ccc(Cl)c(F)c1 [Example 24, 2-(4-chloro-3-fluorophenoxy)-2,2-difluoro-N-[(3S,6R)-6-[5-(3,3,3-trifluoropropoxy)-1,3,4-oxadiazol-2-yl]piperidin-3-yl]acetamide]	
1 to 500	O=C(COc1ccc(C(F)(F)F)c(Cl)c1)N[C@H]1CC[C@H](c2nnc(OCCC(F)(F)F)o2)NC1 [Example 25, 2-[3-chloro-4-(trifluoromethyl)phenoxy]-N-[(3S,6R)-6-[5-(3,3,3-trifluoropropoxy)-1,3,4-oxadiazol-2-yl]piperidin-3-yl]acetamide]	
1 to 500	O=C(COc1ccc(Br)cc1)N[C@H]1CC[C@H](c2nnc(OCCC(F)(F)F)o2)NC1 [Example 27, 2-(4-bromophenoxy)-N-[(3S,6R)-6-[5-(3,3,3-trifluoropropoxy)-1,3,4-oxadiazol-2-yl]piperidin-3-yl]acetamide]	
500 to 2000	Cc1ccc(-c2nnc([C@H]3CC[C@H](NC(=O)COc4ccc(Cl)c(F)c4)CN3)o2)cn1 [Example 34, 2-(4-chloro-3-fluorophenoxy)-N-[(3S,6R)-6-[5-(6-methylpyridin-3-yl)-1,3,4-oxadiazol-2-yl]piperidin-3-yl]acetamide]	solubility [1, 2]: 239 µg/mL (≈ 536 µM); solubility ([1]; phosphate buffer 50 mM, pH 2.0, read-out: Solubility (μg/mL) pH 2.0): 994 µg/mL (≈ 2230 µM); solubility [1, 3]: 153 µg/mL (≈ 343 µM)

Source: patent publication US12258338B2, “Modulators of the integrated stress response pathway” (EVOTEC INTERNATIONAL GMBH, priority 2019, dated 2025)
